According to ChEMBL document CHEMBL1806453, “Conjugate of neamine and 2-deoxystreptamine mimic connected by an amide bond” (Bioorg Med Chem Lett, 2011):

Experiments:
Assay type in all cases: nucleic-acid assay
[1] = target: Nucleic Acid; test: Binding affinity to 2-AP labeled mutant RNA5 by fluorescence binding assay
[2] = target: Nucleic Acid; test: Binding affinity to 2-AP labeled mutant RNA4 by fluorescence binding assay
[3] = target: Nucleic Acid; test: Binding affinity to 2-AP labeled mutant RNA3 by fluorescence binding assay
[4] = target: Nucleic Acid; test: Binding affinity to 2-AP labeled mutant RNA2 by fluorescence binding assay
[5] = target: Nucleic Acid; test: Binding affinity to 2-AP labeled RNA1 by fluorescence binding assay
[6] = target: Nucleic Acid; test: Binding affinity to 2-AP labeled mutant RNA6 by fluorescence binding assay
[7] = target: Nucleic Acid; test: Binding affinity to 2-AP labeled mutant RNA7 by fluorescence binding assay
[8] = target: Nucleic Acid; test: Binding affinity to 2-AP labeled mutant RNA8 by fluorescence binding assay

Structure (SMILES) | Kd [1] | Kd [2] | Kd [3] | Kd [4] | Kd [5] | Kd [6] | Kd [7] | Kd [8]
CO[C@@H]1C[C@H](NC(=O)[C@@H]2C[C@H](O[C@H]3O[C@H](CN)[C@@H](O)[C@H](O)[C@H]3N)[C@@H](N)C[C@H]2N)[C@@H](N)C[C@H]1N | 500 nM | 1700 nM | 2200 nM | 1500 nM | 2200 nM | 1400 nM | 2900 nM | 1400 nM
NC[C@@H]1O[C@H](O[C@H]2[C@@H](O)[C@H](O[C@@H]3[C@@H](O)[C@H](N)C[C@H](N)[C@H]3O[C@H]3O[C@H](CN)[C@@H](O)[C@H](O)[C@H]3N)O[C@@H]2CO)[C@H](N)[C@@H](O)[C@@H]1O [FRAMYCETIN] | 1100 nM | – | 1100 nM | – | 1500 nM | – | 1100 nM | –
